The source of these data is PMC8805583, “Discovery of Herbacetin as a Novel SGK1 Inhibitor to Alleviate Myocardial Hypertrophy” (Advanced Science, 2021).

Usually IC50 stands for the point on the concentration scale where inhibition reaches its midpoint.

One assay addresses T1, SGK1 (Homo sapiens, UniProt O00141).
T1 sequence (O00141 1-431): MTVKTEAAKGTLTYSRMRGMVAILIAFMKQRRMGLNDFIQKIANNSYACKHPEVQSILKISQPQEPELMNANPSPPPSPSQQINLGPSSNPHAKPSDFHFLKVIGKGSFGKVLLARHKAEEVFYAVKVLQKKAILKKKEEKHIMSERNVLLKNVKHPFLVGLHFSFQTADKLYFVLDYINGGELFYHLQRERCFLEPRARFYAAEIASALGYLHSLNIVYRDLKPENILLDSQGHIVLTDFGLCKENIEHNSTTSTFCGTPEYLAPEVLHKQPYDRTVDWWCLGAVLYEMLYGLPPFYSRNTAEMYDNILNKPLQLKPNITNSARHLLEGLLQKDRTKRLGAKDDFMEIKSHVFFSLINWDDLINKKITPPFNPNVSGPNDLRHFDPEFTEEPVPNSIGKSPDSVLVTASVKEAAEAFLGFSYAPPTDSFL
In words: Mass spectrometry-based SGK1 kinase inhibitory assay (LC/MS of phosphorylated […]). Type of assay: biochemical. The following applies: for reduction in SGK1 inhibitory activity, absence of -OH at C-8: compared with HBT. The source says: To identify active compounds with SGK1 inhibitory activity from Ext.R, a novel mass‐spectrometry based kinase inhibitory assay was developed. A polypeptide sequence ([…], m/z: 618.6) derived from glycogen Synthase Kinase‐3(GSK3), a known substrate of SGK1, was optimized and synthesized. We subsequently used liquid chromatography coupled with mass spectrometry (LC/MS) to detect and quantify its phosphorylation level ([…](p)FAE, m/z:658.7) (Figure 3A).^[ [26] ^] Basal level SGK1 was supplemented to each well, and the peak area of phosphorylation was measured in the presence or absence of testing compounds. […] After investigating the major chemical constituents in Ext.R (Table S3, Supporting Information), a set of compounds in Ext.R were subsequently screened for their impacts on SGK1 activity. […] The direct interaction between HBT and SGK1 was further verified by temperature‐ and dose‐dependent cellular thermal shift assays (Figure 3E,F). We further performed a direct binding assay of HBT to SGK1 by KINOMEscan assay (Eurofins Discovery).
Synthesis of […] was prepared by Shanghai Sangong Biotech. In order to ensure the phosphorylation reaction of SGK1, SGK1 (0.25 µg mL^−1) was added to kinase buffer (25 mmol Tris [pH 7.5], 5 mmol β‐glycerolphosphate, 2 mmol DTT, 10 mmol MgCl2) with the substrate peptide […] (25 µmol) and ATP (200 µmol) and incubated for 1 h at 30 °C in the presence or absence of inhibitors. A concentration‐dependent assay for SGK1 at different concentrations (0.05, 0.1, 0.2, 0.25, and 0.3 µg mL^−1) was performed. Reactions were terminated by the addition of methyl alcohol with 0.1% trifluoroacetic acid (TFA), and supernatants were analyzed by the Agilent 1100 LC system (Agilent Technologies, USA) and a 1946D single quadrupole mass spectrometer. The acquisition parameters for LC/MS were set for positive ionization mode and selected ion monitoring (SIM) m/z values of 618.6 and 658.7 for the substrate peptide and product peptide respectively. Chromatographic separation was performed by a reversed‐phase ZORBAX SB‐C18 analytical column. The mobile phase included water containing 0.1% v/v TFA (A) and acetonitrile containing 0.1% v/v TFA (B). The flow rate was 0.6 mL min^−1. A gradient program was carried out according to the following profile: 0 min, 13% B; 15 min, 28% B; 16 min, 100% B. The constituents of Ext.R were screened by the assay to evaluate their inhibitory effects on SGK1 activity. A minimum of three replicates of each sample were analyzed and averaged together. Inhibition of SGK1 was calculated by the following equation (1) Inhibitionrate%=PC−PS/PC P C and P S represented the peak area of product peptide in the control group without test compounds and the tested sample group with various test compounds, respectively.

In assay [1] the test system is SGK1-dependent phosphorylation of NDRG1. Further details: method as in PMID 21865856. Conditions: cited from earlier work.
Where [2] appears, read: MS-based kinase inhibitory assay.

`O=c1c(O)c(-c2ccc(O)cc2)oc2cc(O)cc(O)c12` [A1]: on SGK1, the “reduction in SGK1 inhibitory activity, absence of -OH at C-8” value is “greater than 10 fold”. It took 11.3 µM to reach half-maximal inhibition on SGK1 (in figure, n = 3) (IC50).
Consider `O=c1c(O)c(-c2ccc(O)cc2)oc2c(O)c(O)ccc12` [A2, 3,7,8‐trihydroxy‐2‐(4‐hydroxyphenyl) chromen‐4‐one], for which the IC50 at SGK1 (setting [2]) worked out at 0.307 µM.
Regarding `O=c1cc(-c2ccc(O)cc2)oc2c(O)c(O)cc(O)c12` [A3], at SGK1, the “reduction in SGK1 inhibitory activity, absence of -OH at C-3” value is listed as “significant reduction”.
On to `O=c1c(O)c(-c2ccc(O)cc2)oc2cc(O)ccc12` [A4], for which the “reduction in SGK1 inhibitory activity, absence of -OH at C-8” value at SGK1 was “greater than 10 fold”. In addition, at SGK1 (in figure, n = 3), 11.6 µM corresponded to half-maximal inhibition (IC50).
For `O=c1cc(-c2ccc(O)cc2)oc2c(O)c(O)ccc12` [A5], the “reduction in SGK1 inhibitory activity, absence of -OH at C-3” value at SGK1 is recorded as “significant reduction”.
With `CCc1c(C(=O)NNC(=O)C(O)c2cc(F)cc(F)c2)ccc(O)c1C` (stereo not drawn) [EMD638683, reference compound], the IC50 in assay [1] is 3.35 µM.
In the case of `O=C(O)/C=C/c1ccc(O)cc1` [p-coumaric acid], at SGK1 (setting [2]), the concentration for half-maximal inhibition (IC50) stood at 8.04 µM.
